Assay results taken from patent US11034913B2, “Metal working fluid” (Henkel AG & Co. KGaA, priority 2015, dated 2021).

Tests used:
Type in all cases: cell-based
[1] = test system: Mixed Gram Negative Bacteria; assay: Mycobacterium challenge, four-week re-inoculation test: mixed Gram-negative bacteria count; conditions: 5 w/w % dilution
Method: (§1) A tap water dilution of the metal working fluid for the Mycobacterium challenge was made to a concentration of 5 w/w %. The sample was tested by Biosan Laboratories, in Warren, Mich., USA, an independent commercial biological laboratory, for biostatic activity against Mycobacterium and against mixed Gram-negative bacteria.
(§2) The test method evaluated the effectiveness of antimicrobial agents in controlling Mycobacterium immunogenum in the presence of high background population of Gram-negative and other bacteria responsible for metal working fluid deterioration. Sample metal working fluids including the biostat of Example 5 and antimicrobial agents were prepared at use concentrations. 1% iron chips were added to the diluted metal working fluid samples. Two microbial populations were then introduced at a 1% level: an undefined Gram-negative bacterial inoculum isolated from a contaminated metal working fluid, and an inoculum containing Mycobacterium immunogenum. The inoculated test metal working fluids were incubated at room temperature (22+2° C.) on an orbital shaker for four weeks. During the four week test period, the metal working fluids were evaluated twice weekly for bacterial and mycobacterial contamination before being re-inoculated with both microbial suspensions at 1% concentrations. This re-inoculation method ensured sufficient viable Gram-negative and Mycobacterium levels throughout the test.

[2] = test system: Mycobacterium immunogenum; assay: Mycobacterium challenge, four-week re-inoculation test: Mycobacterium count; conditions: 5 w/w % dilution
Method: as §1, §2

[3] = test system: mixed Gram-negative bacteria; assay: Minimum inhibitory concentration testing (biostat candidate screening, Phase 1 and Phase 2; dip slide counts)
[4] = Sample 1, Day 0 (Initial Inoculum)
[5] = Sample 2, Day 0 (Initial Inoculum)
[6] = Phase 1, log bacterial counts at 24 and 48 h versus DCHA standard, scale 0-6, 3 = matches DCHA standard, higher = better

CC(CN)CCCN (stereo not shown) [Example 5, Methylpentamethylene diamine]
~1 × 10^6 cfu/ml: Mixed Gram Negative Bacteria count [1, 4] | Mixed Gram Negative Bacteria count [1, 5]
outperformed DCHA: Biostatic efficacy regarding Gram-negative bacteria compared with the DCHA standard ([3]; result in words, 3 wt. % amine in metal working fluid)
2.5: Differential Value Scores, Round 1 [3, 6]
~1 × 10^5 cfu/ml: Mycobacterium immunogenum count [2, 4] | Mycobacterium immunogenum count [2, 5]
3: Differential Value Scores, Round 3 [3, 6]
4.5: Differential Value Scores, Round 2 [3, 6]
<2 cfu/ml: Mixed Gram Negative Bacteria count ([1]; Sample 1, Day 2) | Mixed Gram Negative Bacteria count ([1]; Sample 1, Day 7) | Mixed Gram Negative Bacteria count ([1]; Sample 1, Day 9) | Mixed Gram Negative Bacteria count ([1]; Sample 1, Day 14) | Mixed Gram Negative Bacteria count ([1]; Sample 1, Day 16) | Mixed Gram Negative Bacteria count ([1]; Sample 1, Day 21) | Mixed Gram Negative Bacteria count ([1]; Sample 1, Day 23) | Mixed Gram Negative Bacteria count ([1]; Sample 2, Day 2) | Mixed Gram Negative Bacteria count ([1]; Sample 2, Day 7) | Mixed Gram Negative Bacteria count ([1]; Sample 2, Day 9) | Mixed Gram Negative Bacteria count ([1]; Sample 2, Day 14) | Mixed Gram Negative Bacteria count ([1]; Sample 2, Day 16) | Mixed Gram Negative Bacteria count ([1]; Sample 2, Day 21) | Mixed Gram Negative Bacteria count ([1]; Sample 2, Day 23) | Mycobacterium immunogenum count ([2]; Sample 1, Day 2) | Mycobacterium immunogenum count ([2]; Sample 1, Day 7) | Mycobacterium immunogenum count ([2]; Sample 1, Day 9) | Mycobacterium immunogenum count ([2]; Sample 1, Day 14) | Mycobacterium immunogenum count ([2]; Sample 1, Day 16) | Mycobacterium immunogenum count ([2]; Sample 1, Day 21) | Mycobacterium immunogenum count ([2]; Sample 1, Day 23) | Mycobacterium immunogenum count ([2]; Sample 2, Day 2) | Mycobacterium immunogenum count ([2]; Sample 2, Day 7) | Mycobacterium immunogenum count ([2]; Sample 2, Day 9) | Mycobacterium immunogenum count ([2]; Sample 2, Day 14) | Mycobacterium immunogenum count ([2]; Sample 2, Day 16) | Mycobacterium immunogenum count ([2]; Sample 2, Day 21) | Mycobacterium immunogenum count ([2]; Sample 2, Day 23)
3.3: Differential Value Scores, Average ([3]; Phase 1, average of Rounds 1-3, scale 0-6, 3 = matches DCHA standard)
